The record followed here is patent EP1438962A1, “DRUGS COMPRISING COMBINATION OF TRIAZASPIRO 5,5 U NDECANE DERIVATIVE WITH CYTOCHROME P450 ISOZYME 3A4 INHIBITOR AND/OR P−GLYCOPROTEIN INHIBITOR” (ONO PHARMACEUTICAL CO., LTD., priority 2001, dated 2003).

Data set [1] in a line: Plasma concentration after intravenous administration in rat in the presence of CYP 3A4 inhibitor. It is filed as in vivo. The following applies: male SD rats, test compound 3 mg/kg intravenously; for AUC increase in the presence of ketoconazole versus absence: ketoconazole 50 mg/kg intraperitoneally; for AUC at 4 h: rat, in vivo, iv, 3 mg/kg. How it is done:
Ketoconazole (50 mg/kg), an inhibitor against CYP 3A4, was intraperitoneally administered to male SD rats. One hour thereafter, the test compound (3 mg/kg) was intravenously administered. After 2, 5, 15, 30, 60, 120 and 240 minutes from the administration of the test compound, blood was collected from the rat jugular vein and centrifuged at 3,000 rpm for 10 minutes to obtain plasma. To 150 µL of the resulting plasma were added 5 ng of 2-[4-[4-(2-methoxyphenyl)-1-piperazinyl]butylamino]-5-ethoxycarbonyl-4,6-dimethylpyrimidine trihydrochloride as an internal standard, proteins were removed therefrom using ethanol and a plasma concentration of the test compound was measured by high-performance liquid chromatography. From the resulting plasma concentration of the test compound, the area under the curve of plasma concentration vs. time (AUC, µg·min/mL) was calculated.

For the next data set, the system named is CYP 3A4. Put plainly: Metabolic reaction in pooled human liver microsome with or without the CYP 3A4 inhibitor ketoconazole. The following applies: 1 µmol/L test compound, 37°C, after 60 minutes; for Residual rate (%) Ketoconazole (+): ketoconazole 1 µmol/L; for Residual rate (%) Ketoconazole (-): without ketoconazole. It is filed as in vitro ADME. The source says: Metabolic reaction of a test compound in pooled human liver microsome (Zenotec) in the presence of a specific inhibitor for each CYP molecular species was investigated and the CYP molecular species participating in the metabolism was estimated from the effect of each inhibitor.
The following inhibitors were used as the specific inhibitors for CYP molecular species:
A mixed solution containing 100 mmol/L of a phosphate buffer (pH 7.4), 0.05 mmol/L disodium ethylenediaminetetraacetate, 5 mmol /L magnesium chloride, 1 µmol/L of a test compound, 0.2 mg/L of human liver microsome (8 mg/L only for the measurement of a metabolism inhibiting rate by CYP 2C19) and each inhibitor (each of the numerals being the final concentration) was pre-incubated at 37°C, and then 2 mmol/L NADPH was added thereto to start the reaction. Immediately thereafter and after 60 minutes, 100 µL. of the sample was collected. The collected sample was immediately added to 2 mL of diethyl ether containing 400 µL of distilled water and 0.1 µg/L of an internal standard substance, followed by stirring, and the reaction was stopped. After a centrifugal treatment (2,000 rpm for 3 minutes), diethyl ether which was an upper layer was collected and dried in vacuo. The residue was dissolved in 150 µL of 0.01% TFA-80% acetonitrile and 40 µL thereof was subjected to a measurement. In this test, no quantitative determination was conducted but the residual rate to the concentration of the compound immediately after starting the reaction was determined from the area ratio in liquid chromatography/tandem mass analysis (LC/MS/MS) chromatogram.
On the technique in general: Liver microsomes are vesicles of endoplasmic reticulum, rich in cytochrome P450 enzymes.

A short description of data set [2]: Plasma concentration upon oral administration to rats in the presence of an HIV protease inhibitor. It is filed as in vivo. The following applies: male SD rats. As for the experimental part: Amprenavir, nelfinavir, ritonavir or saquinavir (10 mg/kg) which is an HIV protease inhibitor and 10 mg/kg of the test compound were orally administered to male SD rats at the same time. After 15, 30, 60, 120, 240 and 360 minutes from the administration of the test compound, blood was collected from the rat jugular vein and centrifuged at 3,000 rpm for 10 minutes to give plasma. To 200 µL of the resulting plasma were added 50 ng of (3S)-1-butyl-2,5-dioxo-3-(2-methylpropyl)-9-)4-phenyloxyphenylmethyl)-1,4,9-triazaspiro[5.5]undecane as an internal standard. To this were added 300 µL of distilled water and 2,000 µL of diethyl ether, followed by well stirring, and the diethyl ether layer recovered therefrom was dried in vacuo. The dried substance was dissolved in 150 µL of a 50% acetonitrile solution containing 0.005% trifluoroacetic acid and subjected to a liquid chromatography/tandem mass analysis (LC/MS/MS) method to measure a plasma concentration of the test compound. From the concentration of the test compound in the resulting plasma, the area under curve of plasma concentration vs. time (AUC, µg·min/mL) was calculated.

Data set [3] deals with parent cells thereof (LLC-PK 1). Put plainly: Membrane permeability of parent cells. The following applies: PK 1 cells, CsA (-), compound 10 µM. It is filed as in vitro ADME. As for the experimental part: (§1) Human MDR1 expressed cells (LLC-GA-5-COL 150) and parent cells thereof (LLC-PK 1) were incubated until arriving confluent in a 12-well transwell plate to prepare a single-layer membrane. Compound 75(54) was adjusted to 10 µM using a buffer for the measurement (M 199, 26.2 mM NaHCO3, 10% FBS, 0.03% L-glutamine; pH 7.4). In measuring the membrane permeability from lumen to blood vessel, the drug solution was loaded to the lumen while, in measuring the membrane permeability from blood vessel to lumen, it was loaded to the blood vessel and incubation was carried out under conditions at 37°C, 5% CO2 and relative humidity of 90%. After a certain period, the sample solution was collected and, in order to keep each volume, a buffer for the measurement was supplemented to an extent of the collected volume. Similarly, membrane permeability of Compound 75(54) was observed as well in the presence of cyclosporine A (abbreviated as CsA; final concentration: 10 µM) which is an inhibitor for P-gp. The measurement was carried out 3 times. All samples were evaluated by means of LS/MS/MS.

The test system of data set [4] is Human MDR1 expressed cells (LLC-GA-5-COL 150). Put plainly: Membrane permeability of P-gp expression cells. The following applies: COL 150 cells, CsA (-), compound 10 µM. In kind it is in vitro ADME. As for the experimental part: as §1
A further data set concerns Caco-2 cells. Put plainly: Permeability of Caco-2 in the presence of P-gp inhibitor. In kind it is in vitro ADME. The following applies: drug 10 µM. As for the experimental part: Caco-2 cells were incubated in a 12-well transwell place on a collagen-coated porous polycarbonate membrane until arriving confluent to prepare a single-layer membrane of Caco-2 cells. The single-layer membrane was preincubated for 30 minutes in a buffer for the measurement (a Hanks buffer containing 10 mM HEPES and 15 mM glucose; pH 7.0 ± 0.2) to which d-α-tocopheryl polyethylene glycol 1000 succinate, a P-gp inhibitor, was added. The drug concentration was adjusted to 10 µM by a buffer for the measurement. In measuring the membrane permeability from lumen to blood vessel, the drug solution was loaded to the lumen while, in measuring the membrane permeability from blood vessel to lumen, it was loaded to the blood vessel and incubation was carried out under conditions at 37°C, 5% CO2 and relative humidity of 90%. After 1 and 2 hours from the administration of the drug, 200 µL of the buffer for the measurement containing the drug solution were recovered and substituted with a new buffer for the measurement. The measurement was carried out 2 times. Membrane permeability in a cell-free state was measured and used as a blank. As a control, permeability of Lucifer Yellow was measured. All samples were evaluated by LC/MS. A permeation coefficient (Papp) was calculated according to the following equation. Papp = (dc / dt) • Vr / (A • C0 ) [formula]
In the equation, dc/dt is a permeation rate after lag time; Vr is a volume of the solution at the side of a donor; A is a surface area; and C0 is the initial concentration of the solution at the side of the donor.
For orientation: Passage across Caco-2 layers is used to estimate intestinal permeability.

Data set [5] can be described thus: Plasma concentration upon oral administration to rats in the presence of CYP 3A4 inhibitor. It is filed as in vivo. The following applies: male SD rats, test compound 30 mg/kg orally, ketoconazole 50 mg/kg intraperitoneally one hour before. How it is done:
Ketoconazole (50 mg/kg), a CYP 3A4 inhibitor, was intraperitoneally administered to male SD rats. One hour thereafter, 30 mg/kg of the test compound was orally administered. After 15, 30, 60, 120, 240 and 360 minutes from administration of the test compound, blood was collected from the rat jugular vein and centrifuged at 3,000 rpm for 10 minutes to give plasma. To 150 µL of the resulting plasma were added 5 ng of 2-[4-[4-(2-methoxyphenyl)-1-piperazinyl]butyl-amino]-5-ethoxycarbonyl-4,6-dimethylpyrimidine trihydrochloride, proteins were removed therefrom using ethanol and plasma concentration of the test compound was measured by high-performance liquid chromatography. From the concentration of the test compound in the resulting plasma, the area under curve of plasma concentration vs. time (AUC, µg•min/mL) was calculated.

For orientation: AUC means concentration integrated over time.

Read-outs that look alike come from different tables or passages of the source.

`CCCCN1C(=O)C(CC(C)C)NC(=O)C12CCN(Cc1c(C)nn(-c3ccccc3)c1C)CC2` (stereo not shown) [Compound 3(1)]: the “AUC increase in the presence of ketoconazole versus absence” value in data set [1] was “about 4 times”. Besides, the AUC at 4 h in data set [1] (ketoconazole 50 mg/kg intraperitoneally one hour before, read-out: AUC in the presence of ketoconazole (converted)) is 4350 ng·h/mL. For the same compound, in data set [1] (no ketoconazole, read-out: AUC in the absence of ketoconazole (converted)), the AUC at 4 h was 1020 ng·h/mL. In the data set with CYP 3A4, the “Residual rate (%) Ketoconazole (+)” value is 89.1% and the “Residual rate (%) Ketoconazole (-)” value came out at 32.1%.
On to `CCCCN1C(=O)[C@H](CC2CCCCC2)NC(=O)C12CCN(Cc1ccc(Oc3ccc(C(=O)O)cc3)cc1)CC2` [Compound 40(70), (3S)-1-butyl-2,5-dioxo-3-cyclohexylmethyl-9-(4-(4-carboxyphenyloxy)phenylmethyl)-1,4,9-triazaspiro[5.5]undecane], for which, in the data set on CYP 3A4, the “Residual rate (%) Ketoconazole (+)” value was 104.0% and the “Residual rate (%) Ketoconazole (-)” value worked out at 28.2%.
For `CCCCN1C(=O)[C@@H]([C@H](O)C2CCCCC2)NC(=O)C12CCN(Cc1c(C)nn(-c3ccc(C(=O)NC)cc3)c1C)CC2` [Compound 75(53), (3R)-1-butyl-2,5-dioxo-3-((1R)-1-hydroxy-1-cyctohexylmethyl)-9-(3,5-dimethyl-1-(4-methylaminocarbonylphenyl)pyrazol-4-ylmethyl)-1,4,9-triazaspiro[5.5]undecane], in the data set on CYP 3A4, the “Residual rate (%) Ketoconazole (+)” value amounted to 114.4% and the “Residual rate (%) Ketoconazole (-)” value stood at 19.4%.
`CCCCN1C(=O)[C@@H]([C@H](O)C2CCCCC2)NC(=O)C12CCN(Cc1ccc(Oc3ccc(C(=O)O)cc3)cc1)CC2` [Compound 75(54), (3R)-1-butyl-2,5-dioxo-3-((1R)-1-hydroxy-1-cyclohexylmethyl)-9-(4-(4-carboxyphenyloxy)phenylmethyl)-1,4,9-triazaspiro[5.5]undecane]: the “AUC increase in the presence of amprenavir versus absence” value in data set [2] (test compound 10 mg/kg and amprenavir 10 mg/kg orally at the same time) is reported as 3.7 times. Also, the “AUC increase in the presence of nelfinavir versus absence” value in data set [2] (test compound 10 mg/kg and nelfinavir 10 mg/kg orally at the same time) was found to be 3.4 times. In data set [2] (test compound 10 mg/kg and ritonavir 10 mg/kg orally at the same time), the “AUC increase in the presence of ritonavir versus absence” value was determined as 7.7 times. In data set [2] (test compound 10 mg/kg and saquinavir 10 mg/kg orally at the same time), the “AUC increase in the presence of saquinavir versus absence” value amounted to 1.7 times. Moreover, the “Permeability From blood vessel to lumen” value in data set [3] came out at 18.8 µL/cm^2/hr; in data set [4], 34.3 µL/cm^2/hr. Further, the “Permeability From lumen to blood vessel” value is 35.3 µL/cm^2/hr in data set [3] and 2.06 µL/cm^2/hr in data set [4]. Also, the “Permeation Coefficient From blood vessel to lumen” value is 13 cm/s in the data set with Caco-2 cells (Caco-2, 0.025% TPGS (+)) and 32.4 cm/s with Caco-2 cells (Caco-2, 0.025% TPGS (-)). Moreover, the “Permeation Coefficient From lumen to blood vessel” value was 10.5 cm/s in the data set with Caco-2 cells (Caco-2, 0.025% TPGS (+)) and 3.42 cm/s with Caco-2 cells (Caco-2, 0.025% TPGS (-)). Further, the “AUC increase in the presence of ketoconazole versus absence” value in data set [5] was 10 times; in data set [1] it was “about 3 times”. Further, in the data set on CYP 3A4, the “Residual rate (%) Ketoconazole (+)” value is 95.3%. The “Residual rate (%) Ketoconazole (-)” value with CYP 3A4 is 34.4%.
